Results taken from patent US20220152051A1, “APPLICATION OF GLYCOCHOLIC ACID IN PREPARATION OF ANTITUMOR DRUGS” (DALIAN UNIVERSITY, priority 2019, published 2022).

What was measured:
[1] = system: 4T1 (mouse breast cancer cells); test: In-vitro anti-tumor experiment (CCK-8), 4T1 cells; assay type: cell-based; conditions: for concentration at the highest point of the inhibition rate: 4T1 cells, highest inhibition rate at 12 h
Protocol: 3.1 Cells at a logarithmic growth phase are collected, the concentration of the cells is respectively regulated into 5×10^4 cells/ml by the 1640 culture medium and the DMEM culture medium, and 100 μl of cell suspension is added into a 96-well plate. 3.2 After culture is carried out for 24 h at the temperature of 37° C. at 5% CO2, the concentration gradient of glycocholic acid respectively of 0.1 nmol/L, 0.2 nmol/L, 0.4 nmol/L, 0.8 nmol/L, 1.6 nmol/L, 3.2 nmol/L and 6.4 nmol/L is added into 4T1 mouse breast cancer cells, the concentration gradient of glycocholic acid respectively of 0.02 μmol/L, 0.04 μmol/L, 0.08 μmol/L, 0.16 μmol/L, 0.32 μmol/L, 0.64 μmol/L and 1.28 μmol/L is added into MCF-7 cells, the concentration gradient of glycocholic acid respectively of 0.02 μmol/L, 0.04 μmol/L, 0.08 μmol/L, 0.16 μmol/L, 0.33 μmol/L, 0.66 μmol/L and 1.32 μmol/L is added into MDA-MB-468 cells, the concentration gradient of glycocholic acid respectively of 0.02 μmol/L, 0.04 μmol/L, 0.08 μmol/L, 0.16 μmol/L, 0.32 μmol/L, 0.64 μmol/L and 1.28 μmol/L is added into NIH:OVCAR-3 cells, the concentration gradient of glycocholic acid respectively of 0.02 μmol/L, 0.04 μmol/L, 0.08 μmol/L, 0.16 μmol/L, 0.32 μmol/L, 0.64 μmol/L and 1.28 μmol/L is added into RL-95-2 cells, set up five duplicated wells and meanwhile, set up a blank group and a control group. 3.3 Add CCK-8 reagent after 12 h, 24 h, 36 h, 48 h and 60 h, and incubate for 3 h, and after incubation is completed, the absorption value of each well is measured at OD450 nm of the microplate reader. 3.4 An inhibition rate of each concentration of glycocholic acid for tumor cells is obtained by utilizing a formula of 3.1 Cells at a logarithmic growth phase are collected, the concentration of the cells is regulated into 5×10^4 cells/ml by the 1640 culture medium, and 100 μl of cell suspension is added into a 96-well plate. […] 3.3 Add CCK-8 reagent after 12 h, 24 h, 36 h, 48 h and 60 h, incubate for 3 h, and after incubation is completed, the absorption value of each well is measured at OD450 nm of the microplate reader. […]

[2] = system: MCF-7 (human breast cancer cells); test: In-vitro anti-tumor experiment (CCK-8), MCF-7 cells; assay type: cell-based
Protocol: (§1) 3.1 Cells at a logarithmic growth phase are collected, the concentration of the cells is respectively regulated into 5×10^4 cells/ml by the 1640 culture medium and the DMEM culture medium, and 100 μl of cell suspension is added into a 96-well plate. […] 3.3 Add CCK-8 reagent after 12 h, 24 h, 36 h, 48 h and 60 h, and incubate for 3 h, and after incubation is completed, the absorption value of each well is measured at OD450 nm of the microplate reader. […]

[3] = system: MDA-MB-468 (human breast cancer cells); test: In-vitro anti-tumor experiment (CCK-8), MDA-MB-468 cells; assay type: cell-based
Protocol: as §1

[4] = system: NIH:OVCAR-3 (human ovarian cancer cells); test: In-vitro anti-tumor experiment (CCK-8), NIH:OVCAR-3 cells; assay type: cell-based
Protocol: as §1

[5] = system: RL95-2 (human endometrial cancer cells); test: In-vitro anti-tumor experiment (CCK-8), RL95-2 cells; assay type: cell-based
Protocol: as §1

[6] = system: 4T1 mouse breast cancer cells; test: Tumor inhibition rate by animal model (4T1 tumor-bearing BABL/c mice); assay type: in vivo; conditions: 15 mg/kg intragastric twice/day for two weeks, 4T1 tumor in BABL/c mice
Protocol: 1. Materials: 30 female 10-week-old BABL/c mice purchased from the SPF Experimental Animal Center of the Dalian Medical University; and 4T1 tumor cells purchased from the Shanghai Cell Bank of the Chinese Academy of Sciences. 2.1 Modeling: 4T1 mouse breast cancer cells at a logarithmic growth phase are collected, and the concentration of the cells is adjusted to 2×10^6 cells/ml with PBS; and 0.1 ml of cell suspension is injected under the right armpits of the mice by a sterile syringe. 2.2 Administration: intragastric administration of 15 mg/kg of glycocholic acid is started on the second day after modeling (twice/day), 0.2 mL each time, the equal volume of distilled water is administrated to the control group, and administration is continuously carried out for two weeks. The mice are fasted on the night of the last administration, the mice are sacrificed on the fifteenth day by a cervical dislocation method, tumor tissues under the armpits of the mice are aseptically stripped and weighed, and the tumor inhibition rate is calculated according to a formula of […]

FXR gene expression = test: Real-time PCR of specific target RNA expression in 4T1 cells; assay type: cell-based, mouse; conditions: 0.8 nmol/L, 12 h, vs negative control
Protocol: 2. Method: RNA of the 4T1 cells intervened by glycocholic acid is extracted, and after reverse transcription, the Real-time RCP is carried out to measure the changes in the RNA expression of the specific target of glycocholic acid.

FXR protein expression = test: Western blot of specific target protein expression in 4T1 cells; assay type: cell-based, mouse; conditions: 0.8 nmol/L, 12 h
Protocol: 2. After proteins of 4T1 cells intervened by glycocholic acid are extracted, by degeneration treatment, changes in the expression of the related proteins are measured according to the Western blot flow.

[7] = highest inhibition rate at 36 h

SMILES: C[C@H](CCC(=O)NCC(=O)O)[C@H]1CC[C@H]2[C@@H]3[C@H](O)C[C@@H]4C[C@H](O)CC[C@]4(C)[C@H]3C[C@H](O)[C@]12C [glycocholic acid]
- concentration at the highest point of the inhibition rate [1]: 0.8 nmol/L
- IC50 ([1]; 4T1 mouse breast cancer cells, CCK-8, 12 h): 0.01 to 0.1 nM
- IC50 ([2]; Homo sapiens, MCF7, CCK-8, 36 h): 640 to 1000 nM
- concentration at the highest point of the inhibition rate [2, 7]: 1.28 µmol/L
- IC50 ([3]; Homo sapiens, CCK-8, 36 h): 330 to 660 nM
- concentration at the highest point of the inhibition rate [3, 7]: 1.32 µmol/L
- IC50 ([4]; Homo sapiens, CCK-8, 48 h): 160 to 320 nM
- concentration at the highest point of the inhibition rate ([4]; highest inhibition rate at 48 h): 1.28 µmol/L
- IC50 ([5]; Homo sapiens, CCK-8, 36 h): 320 to 640 nM
- concentration at the highest point of the inhibition rate [5, 7]: 1.28 µmol/L
- average mouse tumor mass ([6]; day 15): 0.247 ± 0.08 g
- tumor inhibition rate ([6]; vs control group): 42.83%
- expression of related RNA (FXR gene) after intervention (FXR gene expression): 1.5 times
- expression of the specific target protein (FXR) in tumor cells (FXR protein expression): increased

SMILES: C[C@H](CCC(=O)NCC(=O)[O-])[C@H]1CC[C@H]2[C@@H]3[C@H](O)C[C@@H]4C[C@H](O)CC[C@]4(C)[C@H]3C[C@H](O)[C@]12C.[Na+] [sodium glycocholate]
- concentration at the highest point of the inhibition rate [1]: 0.7 nmol/L
